# Reference: patent US20180221306A1, “PHARMACEUTICAL COMPOSITIONS OF 5-HYDROXY-2-METHYLNAPHTHALENE-1,4-DIONE” (PellFiCure Pharmaceuticals, Inc., priority 2016, published 2018)
# Where two headings read alike, the source gives them in different places. Marks after values point to notes of the source that are not given here.
# Columns and labels:
# [1] = 5 mg/g
# [2] = Forced degradation: solution stability in aqueous media (HPLC)
smiles,measurement,setting,value
"CC1=CC(=O)c2c(O)cccc2C1=O [Compound I, 5-hydroxy-2-methylnaphthalene-1,4-dione]","Solution Stability in Aqueous Media, % Potency",[1]; 0 week,92.86%
same,"Solution Stability in Aqueous Media, % Potency","[1]; 0 week, pH 1",99.62%
same,"Solution Stability in Aqueous Media, % Potency","[1]; 0 week, pH 2",98.23%
same,"Solution Stability in Aqueous Media, % Potency","[1]; 0 week, pH 3",96.53%
same,"Solution Stability in Aqueous Media, % Potency","[1]; 0 week, pH 4",96.76%
same,"Solution Stability in Aqueous Media, % Potency","[1]; 0 week, pH 5",97.34%
same,"Solution Stability in Aqueous Media, % Potency","[1]; 0 week, pH 6",94.27%
same,"Solution Stability in Aqueous Media, % Potency","[1]; 0 week, pH 7",87.84%
same,"Solution Stability in Aqueous Media, % Potency","[1]; 0 week, pH 8",78.28%
same,"Solution Stability in Aqueous Media, % Potency","[1]; 0 week, pH 9",85.90%
same,"Solution Stability in Aqueous Media, % Potency","[1]; 0 week, pH 10",86.55%
same,"Solution Stability in Aqueous Media, % Potency","[1]; 1 week, pH 7",<10%
same,"Solution Stability in Aqueous Media, % Potency","[1]; 1 week, pH 8",<10%
same,"Solution Stability in Aqueous Media, % Potency","[1]; 2 week, pH 7",<10^‡ %
same,"Solution Stability in Aqueous Media, % Potency","[1]; 2 week, pH 8",<10^‡ %
same,"Solution Stability in Aqueous Media, % Potency","[1]; 2 week, pH 9",<10^‡ %
same,"Solution Stability in Aqueous Media, % Potency","[1]; 2 week, pH 10",<10^‡ %
same,Initial Compound I remaining in the solution,"[1]; buffer, 168 h, pH 7",less than 10%
same,"Solution Stability in Aqueous Media, Purity","[2]; pH 1, 50% DMSO, 25° C./60% RH, t = 0",99.32 % Area
same,"Solution Stability in Aqueous Media, Purity","[2]; pH 1, 50% DMSO, 25° C./60% RH, t = 1 week",98.83 % Area
same,"Solution Stability in Aqueous Media, Purity","[2]; pH 1, 50% DMSO, 25° C./60% RH, t = 2 week",98.73 % Area
same,"Solution Stability in Aqueous Media, Purity","[2]; pH 1, 50% DMSO, 40° C./75% RH, t = 1 week",98.12 % Area
same,"Solution Stability in Aqueous Media, Purity","[2]; pH 1, 50% DMSO, 40° C./75% RH, t = 2 week",95.79 % Area
same,"Solution Stability in Aqueous Media, Purity","[2]; pH 2, 50% DMSO, 25° C./60% RH, t = 0",98.83 % Area
same,"Solution Stability in Aqueous Media, Purity","[2]; pH 2, 50% DMSO, 25° C./60% RH, t = 1 week",98.48 % Area
same,"Solution Stability in Aqueous Media, Purity","[2]; pH 2, 50% DMSO, 25° C./60% RH, t = 2 week",96.90 % Area
same,"Solution Stability in Aqueous Media, Purity","[2]; pH 2, 50% DMSO, 40° C./75% RH, t = 1 week, precipitation observed",93.43^‡ % Area
same,"Solution Stability in Aqueous Media, Purity","[2]; pH 2, 50% DMSO, 40° C./75% RH, t = 2 week, precipitation observed",85.79^‡ % Area
same,"Solution Stability in Aqueous Media, Purity","[2]; pH 3, 50% DMSO, 25° C./60% RH, t = 0",98.85 % Area
same,"Solution Stability in Aqueous Media, Purity","[2]; pH 3, 50% DMSO, 25° C./60% RH, t = 1 week",97.09 % Area
same,"Solution Stability in Aqueous Media, Purity","[2]; pH 3, 50% DMSO, 25° C./60% RH, t = 2 week",95.26 % Area
same,"Solution Stability in Aqueous Media, Purity","[2]; pH 3, 50% DMSO, 40° C./75% RH, t = 1 week",88.81 % Area
same,"Solution Stability in Aqueous Media, Purity","[2]; pH 3, 50% DMSO, 40° C./75% RH, t = 2 week",72.78 % Area
same,"Solution Stability in Aqueous Media, Purity","[2]; pH 4, 50% DMSO, 25° C./60% RH, t = 0",98.73 % Area
same,"Solution Stability in Aqueous Media, Purity","[2]; pH 4, 50% DMSO, 25° C./60% RH, t = 1 week, precipitation observed",96.77^‡ % Area
same,"Solution Stability in Aqueous Media, Purity","[2]; pH 4, 50% DMSO, 25° C./60% RH, t = 2 week, precipitation observed",93.81^‡ % Area
same,"Solution Stability in Aqueous Media, Purity","[2]; pH 4, 50% DMSO, 40° C./75% RH, t = 1 week, precipitation observed",87.32^‡ % Area
same,"Solution Stability in Aqueous Media, Purity","[2]; pH 4, 50% DMSO, 40° C./75% RH, t = 2 week, precipitation observed",73.78^‡ % Area
same,"Solution Stability in Aqueous Media, Purity","[2]; pH 5, 50% DMSO, 25° C./60% RH, t = 0",98.46 % Area
same,"Solution Stability in Aqueous Media, Purity","[2]; pH 5, 50% DMSO, 25° C./60% RH, t = 1 week, precipitation observed",92.26^‡ % Area
same,"Solution Stability in Aqueous Media, Purity","[2]; pH 5, 50% DMSO, 25° C./60% RH, t = 2 week, precipitation observed",83.09^‡ % Area
same,"Solution Stability in Aqueous Media, Purity","[2]; pH 5, 50% DMSO, 40° C./75% RH, t = 1 week, precipitation observed",58.98^‡ % Area
same,"Solution Stability in Aqueous Media, Purity","[2]; pH 5, 50% DMSO, 40° C./75% RH, t = 2 week, precipitation observed",29.30^‡ % Area
same,"Solution Stability in Aqueous Media, Purity","[2]; pH 6, 50% DMSO, 25° C./60% RH, t = 0",97.78 % Area
same,"Solution Stability in Aqueous Media, Purity","[2]; pH 6, 50% DMSO, 25° C./60% RH, t = 1 week",69.37 % Area
same,"Solution Stability in Aqueous Media, Purity","[2]; pH 6, 50% DMSO, 25° C./60% RH, t = 2 week, precipitation observed",44.92^‡ % Area
same,"Solution Stability in Aqueous Media, Purity","[2]; pH 6, 50% DMSO, 40° C./75% RH, t = 1 week",<10 % Area
same,"Solution Stability in Aqueous Media, Purity","[2]; pH 6, 50% DMSO, 40° C./75% RH, t = 2 week, precipitation observed",<10^‡ % Area
same,"Solution Stability in Aqueous Media, Purity","[2]; pH 7, 50% DMSO, 25° C./60% RH, t = 0",91.09 % Area
same,"Solution Stability in Aqueous Media, Purity","[2]; pH 7, 50% DMSO, 25° C./60% RH, t = 1 week",<10 % Area
same,"Solution Stability in Aqueous Media, Purity","[2]; pH 7, 50% DMSO, 25° C./60% RH, t = 2 week, precipitation observed",<10^‡ % Area
same,"Solution Stability in Aqueous Media, Purity","[2]; pH 7, 50% DMSO, 40° C./75% RH, t = 1 week",<10 % Area
same,"Solution Stability in Aqueous Media, Purity","[2]; pH 7, 50% DMSO, 40° C./75% RH, t = 2 week, precipitation observed",<10^‡ % Area
same,"Solution Stability in Aqueous Media, Purity","[2]; pH 8, 50% DMSO, 25° C./60% RH, t = 0",81.64 % Area
same,"Solution Stability in Aqueous Media, Purity","[2]; pH 8, 50% DMSO, 25° C./60% RH, t = 1 week",<10 % Area
same,"Solution Stability in Aqueous Media, Purity","[2]; pH 8, 50% DMSO, 25° C./60% RH, t = 2 week, precipitation observed",<10^‡ % Area
same,"Solution Stability in Aqueous Media, Purity","[2]; pH 8, 50% DMSO, 40° C./75% RH, t = 1 week",<10 % Area
same,"Solution Stability in Aqueous Media, Purity","[2]; pH 8, 50% DMSO, 40° C./75% RH, t = 2 week, precipitation observed",<10^‡ % Area
same,"Solution Stability in Aqueous Media, Purity","[2]; pH 9, 50% DMSO, 25° C./60% RH, t = 0",89.84 % Area
same,"Solution Stability in Aqueous Media, Purity","[2]; pH 9, 50% DMSO, 25° C./60% RH, t = 1 week",30.06 % Area
same,"Solution Stability in Aqueous Media, Purity","[2]; pH 9, 50% DMSO, 25° C./60% RH, t = 2 week, precipitation observed",7.58^‡ % Area
same,"Solution Stability in Aqueous Media, Purity","[2]; pH 9, 50% DMSO, 40° C./75% RH, t = 1 week",<10 % Area
same,"Solution Stability in Aqueous Media, Purity","[2]; pH 9, 50% DMSO, 40° C./75% RH, t = 2 week, precipitation observed",<10^‡ % Area
same,"Solution Stability in Aqueous Media, Purity","[2]; pH 10, 50% DMSO, 25° C./60% RH, t = 0",88.46 % Area
same,"Solution Stability in Aqueous Media, Purity","[2]; pH 10, 50% DMSO, 25° C./60% RH, t = 1 week",37.43 % Area
same,"Solution Stability in Aqueous Media, Purity","[2]; pH 10, 50% DMSO, 25° C./60% RH, t = 2 week, precipitation observed",<10^‡ % Area
same,"Solution Stability in Aqueous Media, Purity","[2]; pH 10, 50% DMSO, 40° C./75% RH, t = 1 week, precipitation observed",<10^‡ % Area
same,"Solution Stability in Aqueous Media, Purity","[2]; pH 10, 50% DMSO, 40° C./75% RH, t = 2 week, precipitation observed",<10^‡ % Area
same,"Solution Stability in Aqueous Media, Purity","[2]; water, 25° C./60% RH, t = 0",96.33 % Area
same,"Solution Stability in Aqueous Media, Purity","[2]; water, 25° C./60% RH, t = 1 week, precipitation observed",66.97^‡ % Area
same,"Solution Stability in Aqueous Media, Purity","[2]; water, 25° C./60% RH, t = 2 week, precipitation observed",53.76^‡ % Area
same,"Solution Stability in Aqueous Media, Purity","[2]; water, 40° C./75% RH, t = 1 week, precipitation observed",45.09^‡ % Area
same,"Solution Stability in Aqueous Media, Purity","[2]; water, 40° C./75% RH, t = 2 week, precipitation observed",44.20^‡ % Area
